Columns and labels:
[1] = system: TNF-α release from THP-1 cells; test: Inhibition of TNF-α release from THP-1 cells after LPS stimulation; assay type: cell-based; details: Homo sapiens; LPS-stimulated THP-1 cells
Procedure: LPS stock was prepared at 1 mg/mL by adding 1 mL sterile endotoxin-free water to 1 mg LPS powder. The LPS stock was aliquoted and stored at −20 °C. […] An amount of 100 K THP-1 cells were seeded into a 96-well cell culture plate in 100 μL of test medium. […] A total of 10 μL compound was added to the plate with cells, and the cells were incubated for 1 hour at 37 °C. An amount of 10 μL/well LPS was added to stimulate the cells. The final LPS concentration was 300 ng/mL, and the DMSO concentration was 0.3%. […]. The plate was incubated for 5 hours at 37 °C. […] Three replicates were used for each dose. At the 5th hour, the TNF-α in the supernatants and standard curve samples was determined using the HTRF kit. […] Amounts of 5 μL Anti-TNF-α-Cryptate (Invitrogen, Carlsbad, CA, USA) and 5 μL Anti-TNFα-XL665 (Invitrogen) were added, and the plate was incubated at RT for 15 h. The plate was read on an Envision instrument (PerkinElmer) and the IC50 was calculated.

[2] = system: MAPKAPK2; test: Inhibition of MAPKAPK2 in GFP-MAPKAPk2_BHK cell model (nuclear translocation); assay type: cell-based; details: GFP-MAPKAPk2_BHK cells
Procedure: In order to study p38α inhibition in a cell system, we investigated the ability of all compounds to inhibit the phosphorylation of mitogen-activated protein-kinase-activated protein kinase 2 (MAPKAPK2). Each compound was prepared at […] concentrations (1, 3, 10 and 30 nM, 0.1 and 0.3 μM), and the percentages of inhibition were calculated from the numbers of cells after treatment with the different compounds.
GFP-MAPKAPk2_BHK cells were cultured in 96-well plates (2.0 × 10^4/100 μL/well) containing 10% heat-inactivated foetal bovine serum (FBS) and 1 mg/mL G418 at 37 °C in humidified air containing 5% CO2 for 18–24 h. The cells were washed with nutrient solution (100 μL/well) and changed to the compound liquid (100 μL/well). Experiments were set up with the control, and the compound was repeated at each concentration in three wells. The cells were cultured in 96-well plates at 37 °C in humidified air containing 5% CO2 for 90 min. The cells were washed with the dye solution (20 μL/well), and the dyed cells were held for 1 hour at room temperature in the dye liquid. Analysis of nuclear translocation and calculation of the ability of the compounds to inhibit nuclear translocation was performed using the IN Cell Analyzer 1000 Nuclear Trafficking Analysis Module System (GE, Madison, WI, USA). The cultured cells were treated with the obtained compounds in […] concentration grads (1, 3, 10 and 30 nM, 0.1 and 0.3 μM). The inhibitory percentage can be calculated using the amounts of cells after the disposition of the different compounds.

[3] = target: MAPK14/p38α (Homo sapiens, UniProt Q16539); test: p38α MAP kinase activity, phosphorylation of ATF-2 (TR-FRET); assay type: biochemical; details: enzyme
Chain of MAPK14/p38α (Q16539 whole entry): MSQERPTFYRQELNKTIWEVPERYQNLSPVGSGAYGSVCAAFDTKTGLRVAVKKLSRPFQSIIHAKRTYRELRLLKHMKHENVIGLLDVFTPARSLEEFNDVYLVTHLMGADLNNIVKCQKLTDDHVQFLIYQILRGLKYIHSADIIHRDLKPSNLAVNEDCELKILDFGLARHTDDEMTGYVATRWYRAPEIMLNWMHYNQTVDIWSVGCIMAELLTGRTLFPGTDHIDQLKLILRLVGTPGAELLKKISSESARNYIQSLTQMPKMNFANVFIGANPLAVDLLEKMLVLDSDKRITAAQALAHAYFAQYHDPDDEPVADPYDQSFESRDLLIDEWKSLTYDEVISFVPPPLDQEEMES
Procedure: Kinase reaction buffer was composed of 50 mM HEPES (pH 7.5), 0.01% BRIJ-35, 10 mM MgCl2 and 1 mM EGTA. Prepared MAPK14/p38α in 1× kinase buffer with concentration at 500 ng/mL. A 2-fold serial dilution was performed using 1× kinase buffer from 500 ng/mL using 16 dose points. […] The reaction was started by adding 5 μL of the GFP-ATF2(19–96) substrate and ATP solution into each well of the assay plate. The final starting concentration of MAPK14/p38α was 250ng/ml, and the final GFP-ATF2 and ATP concentrations were 0.4 μM and 90 μM, respectively. The assay plate was sealed and incubated for 1 hour at room temperature (RT). Antibody solution (1 mL) was prepared from 20 mM EDTA and 4 nM Tb-antipATF2 (pThr71) antibody in TR-FRET dilution buffer. Antibody solution (10 μL) was added into each well of the assay plate and mixed gently. The final EDTA concentration was 10 mM, and the final Tb-antipATF2 (pThr71) concentration was 2 nM. The assay plate was sealed and incubated for 30 minutes at RT.
Inhibitor in 0.5% DMSO (2 μL/well) at 5-fold the final assay concentration was added into a 384-well assay plate. […] MAPK14/p38α (4 μL/well) was added to each well of the 384-well assay plate and incubated for 15 min at RT. To start the reaction, substrate GFP-ATF2 (19–96) and ATP (4 μL/well) were added into kinase reaction buffer. […] The resulting TR-FRET emission ratio was plotted against the concentration of inhibitor, and the data fitted to a sigmoidal dose-response curve with a variable slope. The IC50 concentration was calculated from the curve.

[4] = target: p38α mitogen-activated protein kinase (Homo sapiens, UniProt Q16539); test: Surface plasmon resonance (Biacore) binding to p38α; details: SPR, 25 °C
Chain of p38α mitogen-activated protein kinase (Q16539 whole entry): as above
Procedure: To assess the binding ability between the compounds and p38α protein, we used SPR for kinase inhibitor interaction studies.
The Biacore instrument uses a technique based on surface plasmon resonance to follow the real-time binding of compounds to immobilized proteins on a carboxymethyl dextran surface in a liquid milieu. Compounds were stored as 10 mM stock solutions in 100% dimethyl sulfoxide (DMSO). All light-sensitive compounds were handled under yellow protective light. […] ATP was dissolved directly in running buffer to make a 10 mM solution. The run was started with five start-up cycles in which running buffer was injected (instead of a sample) followed by sample injection cycles. Zero concentration samples were used as blanks. A typical analysis cycle consisted of a 60 s sample injection (30 μL/min), 120–200 s of buffer flow (dissociation phase), followed by a needle and tubing wash with 50% DMSO and buffer, and finally, a 30 s buffer injection to check for sample carry over. The flow cell temperature was 25 °C. Between sample series, a solvent correction cycle was run according to the instrument manual to adjust for referencing errors due to refractive index mismatches between running buffer and samples [35].

[5] = system: TNF-α production, human whole blood; parameters: method as in PMID 11896401; details: read-out: IC50, inhibition of LPS-induced TNF-α production; cited from earlier work
[6] = system: TNF-α production; parameters: method as in PMID 11896401; details: 30 mg/kg p.o.; cited from earlier work

Cc1ccc(-n2nc(C(C)(C)C)cc2NC(=O)NCc2ccccc2Oc2ccc3[nH]ncc3c2)cc1 [25a, 1-(2-((1H-Indazol-5-yl)oxy)benzyl)-3-(3-(tert-butyl)-1-(p-tolyl)-1H-pyrazol-5-yl)urea]
IC50 [1]: 0.73 ± 0.13 nM
IC50 [2]: 0.00136 ± 0.00031 µM
IC50 ([3]; GFP-ATF2 substrate, 90 μM ATP): 0.00047 ± 2e-05 µM
Kd [4]: 15.4 nM

CC(C)(C)c1cc(NC(=O)NCc2ccccc2Oc2ccc3[nH]ncc3c2)n(-c2ccccc2)n1 [25b, 1-(2-((1H-Indazol-5-yl)oxy)benzyl)-3-(3-(tert-butyl)-1-phenyl-1H-pyrazol-5-yl)urea]
IC50 [1]: 1 ± 0.09 nM
IC50 [2]: 0.00245 ± 0.00059 µM
IC50 ([3]; GFP-ATF2 substrate, 90 μM ATP): 0.0008 ± 3e-05 µM
Kd [4]: 382 nM

Cc1cccc(-n2nc(C(C)(C)C)cc2NC(=O)NCc2ccccc2Oc2ccc3[nH]ncc3c2)c1 [25c, 1-(2-((1H-Indazol-5-yl)oxy)benzyl)-3-(3-(tert-butyl)-1-(m-tolyl)-1H-pyrazol-5-yl)urea]
IC50 [1]: 1.06 ± 0.05 nM
IC50 [2]: 0.0066 ± 0.00066 µM
IC50 ([3]; GFP-ATF2 substrate, 90 μM ATP): 0.00077 ± 8e-05 µM
Kd [4]: 421 nM

COc1ccc(-n2nc(C(C)(C)C)cc2NC(=O)NCc2ccccc2Oc2ccc3[nH]ncc3c2)cc1 [25d, 1-(2-((1H-Indazol-5-yl)oxy)benzyl)-3-(3-(tert-butyl)-1-(4-methoxyphenyl)-1H-pyrazol-5-yl)urea]
IC50 [1]: 1.43 ± 0.07 nM
IC50 [2]: 0.00545 ± 0.00043 µM
IC50 ([3]; GFP-ATF2 substrate, 90 μM ATP): 0.00122 ± 0.00032 µM

CC(C)(C)c1cc(NC(=O)NCc2ccccc2Oc2ccc3[nH]ncc3c2)n(-c2ccc(Cl)cc2)n1 [25e, 1-(2-((1H-Indazol-5-yl)oxy)benzyl)-3-(3-(tert-butyl)-1-(4-chlorophenyl)-1H-pyrazol-5-yl)urea]
IC50 [1]: 3.48 ± 0.46 nM
IC50 [2]: 0.00992 ± 0.00065 µM

CC(C)(C)c1cc(NC(=O)NCc2ccccc2Oc2ccc3[nH]ncc3c2)n(-c2ccc(Br)cc2)n1 [25f, 1-(2-((1H-Indazol-5-yl)oxy)benzyl)-3-(1-(4-bromophenyl)-3-(tert-butyl)-1H-pyrazol-5-yl)urea]
IC50 [1]: 1.82 ± 0.15 nM
IC50 [2]: 0.0074 ± 0.00087 µM
IC50 ([3]; GFP-ATF2 substrate, 90 μM ATP): 0.00073 ± 1e-05 µM

CC(C)(C)c1cc(NC(=O)NCc2ccccc2Oc2ccc3[nH]ncc3c2)n(-c2ccc(F)cc2)n1 [25g, 1-(2-((1H-Indazol-5-yl)oxy)benzyl)-3-(3-(tert-butyl)-1-(4-fluorophenyl)-1H-pyrazol-5-yl)urea]
IC50 [1]: 2 ± 0.01 nM
IC50 [2]: 0.00316 ± 0.00131 µM
IC50 ([3]; GFP-ATF2 substrate, 90 μM ATP): 0.00066 ± 9e-05 µM

CC(C)(C)c1cc(NC(=O)NCc2ccccc2Oc2ccc3[nH]ncc3c2)n(-c2ccc([N+](=O)[O-])cc2)n1 [25h, 1-(2-((1H-Indazol-5-yl)oxy)benzyl)-3-(3-(tert-butyl)-1-(4-nitrophenyl)-1H-pyrazol-5-yl)urea]
IC50 [1]: 1.79 ± 0.48 nM
IC50 [2]: 0.00264 ± 0.00056 µM
IC50 ([3]; GFP-ATF2 substrate, 90 μM ATP): 0.00082 ± 1e-05 µM
Kd [4]: 221 nM

CC(C)(C)c1cc(NC(=O)NCc2ccccc2Oc2ccc3[nH]ncc3c2)n(-c2ccc(S(N)(=O)=O)cc2)n1 [25k, 4-(5-(3-(2-((1H-Indazol-5-yl)oxy)benzyl)ureido)-3-(tert-butyl)-1H-pyrazol-1-yl)benzenesulfonamide]
IC50 [1]: 8.69 ± 0.01 nM
IC50 [2]: 0.039 ± 0.00576 µM

Cc1ccc(-n2nc(C(C)(C)C)cc2NC(=O)NCc2ccccc2Oc2ccc3c(c2)CCCC3O)cc1 (stereo not drawn) [27a, 1-(3-(tert-Butyl)-1-(p-tolyl)-1H-pyrazol-5-yl)-3-(2-((5-hydroxy-5,6,7,8-tetrahydronaphthalen-2-yl)oxy)-benzyl)urea]
IC50 [1]: 15.3 ± 2.56 nM
IC50 [2]: 0.13341 ± 7e-05 µM
IC50 ([3]; GFP-ATF2 substrate, 90 μM ATP): 0.00359 ± 0.00021 µM

CC(C)(C)c1cc(NC(=O)NCc2ccccc2Oc2ccc3c(c2)CCCC3O)n(-c2ccc([N+](=O)[O-])cc2)n1 (stereo not drawn) [27b, 1-(3-(tert-Butyl)-1-(4-nitrophenyl)-1H-pyrazol-5-yl)-3-(2-((5-hydroxy-5,6,7,8-tetrahydronaphthalen-2-yl)-oxy)benzyl)urea]
IC50 [1]: 27.5 ± 1.21 nM
IC50 [2]: 0.0985 ± 0.00589 µM
IC50 ([3]; GFP-ATF2 substrate, 90 μM ATP): 0.00387 ± 0.00043 µM

CC(C)(C)c1cc(NC(=O)NCc2ccccc2Oc2ccc3c(c2)CCCC3O)n(-c2ccccc2)n1 (stereo not drawn) [27c, 1-(3-(tert-Butyl)-1-phenyl-1H-pyrazol-5-yl)-3-(2-((5-hydroxy-5,6,7,8-tetrahydronaphthalen-2-yl)oxy)-benzyl)urea]
IC50 [1]: 18.4 ± 4.35 nM
IC50 [2]: 0.124 ± 0.00664 µM
IC50 ([3]; GFP-ATF2 substrate, 90 μM ATP): 0.00373 ± 0.00032 µM

CC(C)(C)c1cc(NC(=O)NCc2cc(F)ccc2Oc2ccc3c(c2)CCCC3O)n(-c2ccc([N+](=O)[O-])cc2)n1 (stereo not drawn) [27d, 1-(3-(tert-Butyl)-1-(4-nitrophenyl)-1H-pyrazol-5-yl)-3-(5-fluoro-2-((5-hydroxy-5,6,7,8-tetrahydro-naphthalen-2-yl)oxy)benzyl)urea]
IC50 [1]: 130 ± 3.33 nM
IC50 ([3]; GFP-ATF2 substrate, 90 μM ATP): 0.00576 ± 0.00024 µM

Cc1ccc(-n2nc(C(C)(C)C)cc2NC(=O)NCc2cc(F)ccc2Oc2ccc3c(c2)CCCC3O)cc1 (stereo not drawn) [27e, 1-(3-(tert-Butyl)-1-(p-tolyl)-1H-pyrazol-5-yl)-3-(5-fluoro-2-((5-hydroxy-5,6,7,8-tetrahydronaphthalen-2-yl)-oxy)benzyl)urea]
IC50 [1]: 182 ± 4.35 nM
IC50 ([3]; GFP-ATF2 substrate, 90 μM ATP): 0.005 ± 0.00053 µM

Cc1ccc(-n2nc(C(C)(C)C)cc2NC(=O)Nc2ccccc2Oc2ccc3[nH]ncc3c2)cc1 [29a, 1-(2-((1H-Indazol-5-yl)oxy)phenyl)-3-(3-(tert-butyl)-1-(p-tolyl)-1H-pyrazol-5-yl)urea]
IC50 ([2]; bound given in µM): > 10 µM
IC50 ([3]; bound given in µM): > 10 µM

CC(C)(C)c1cc(NC(=O)Nc2ccccc2Oc2ccc3[nH]ncc3c2)n(-c2ccccc2)n1 [29b, 1-(2-((1H-Indazol-5-yl)oxy)phenyl)-3-(3-(tert-butyl)-1-phenyl-1H-pyrazol-5-yl)urea]
IC50 ([2]; bound given in µM): > 10 µM
IC50 ([3]; bound given in µM): > 10 µM

Cc1ccc(-n2nc(C(C)(C)C)cc2NC(=O)Nc2ccc(OCCN3CCOCC3)c3ccccc23)cc1 [BIRB-796, 1-(5-tert-butyl-2-p-tolyl-2h-pyrazol-3-yl)-3-[4-(2-morpholin-4-yl-ethoxy)naph-thalen-1-yl]urea]
IC50 [5]: 780 nM
inhibition of LPS-induced TNF-α production in mice in vivo [6]: 84%

Reference: article PMC6272846, “Synthesis and p38 Inhibitory Activity of Some Novel Substituted N,N′-Diarylurea Derivatives” (Molecules, 2016)
